In patent publication US12590096B2, “Imidazo[2,1-f][1,2,4]triazin-4-amine as TLR8 agonists” (BeOne Medicines | GmbH, priority 2019, dated 2026):
Like-named read-outs stand apart in the source and are kept apart here.

Molecular target: T1, human TLR 8 protein in HEK-blue hTLR 8 tool cell line (Homo sapiens, UniProt Q9NR97)
T1 construct: expressed in transfected cells; host or cells: HEK293 (HEK-Blue hTLR8)
T1 sequence (Q9NR97 27-1041): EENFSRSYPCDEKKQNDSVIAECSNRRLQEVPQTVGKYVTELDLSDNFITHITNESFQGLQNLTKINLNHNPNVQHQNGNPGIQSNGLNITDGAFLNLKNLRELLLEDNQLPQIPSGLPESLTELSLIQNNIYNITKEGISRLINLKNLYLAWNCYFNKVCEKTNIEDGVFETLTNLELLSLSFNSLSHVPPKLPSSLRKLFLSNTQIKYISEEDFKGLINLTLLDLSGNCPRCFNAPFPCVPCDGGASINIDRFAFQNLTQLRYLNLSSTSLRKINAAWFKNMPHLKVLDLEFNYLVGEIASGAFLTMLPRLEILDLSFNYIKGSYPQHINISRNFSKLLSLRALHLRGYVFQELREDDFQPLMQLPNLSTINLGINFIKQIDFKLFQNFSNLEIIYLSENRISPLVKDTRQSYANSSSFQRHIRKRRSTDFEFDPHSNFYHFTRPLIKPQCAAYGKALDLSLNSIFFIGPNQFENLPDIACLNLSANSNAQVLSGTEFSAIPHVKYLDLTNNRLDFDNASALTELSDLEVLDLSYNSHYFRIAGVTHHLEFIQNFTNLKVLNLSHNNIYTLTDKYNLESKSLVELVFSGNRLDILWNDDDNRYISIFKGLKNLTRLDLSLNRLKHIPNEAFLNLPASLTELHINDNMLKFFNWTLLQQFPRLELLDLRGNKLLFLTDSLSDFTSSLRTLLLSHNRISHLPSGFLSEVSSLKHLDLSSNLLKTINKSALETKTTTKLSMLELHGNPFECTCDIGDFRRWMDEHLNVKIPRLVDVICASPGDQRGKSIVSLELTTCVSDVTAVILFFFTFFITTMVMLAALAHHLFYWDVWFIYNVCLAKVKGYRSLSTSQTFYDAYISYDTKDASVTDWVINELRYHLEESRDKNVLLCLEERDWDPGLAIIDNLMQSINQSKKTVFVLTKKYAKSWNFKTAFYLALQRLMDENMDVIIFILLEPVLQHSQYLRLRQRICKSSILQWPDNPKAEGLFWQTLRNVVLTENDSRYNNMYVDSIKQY
Assay: TLR8 stimulation determined by HEK-Blue Detection (NF-κB/SEAP reporter)
Format: cell-based
Conditions: HEK-Blue hTLR8 cells, 16 h incubation
Source text: TLR8 Stimulation Determined by HEK-Blue Detection
This assay was designed to study the stimulation of human TLR 8 protein in HEK-blue hTLR 8 tool cell line by monitoring the activation of NF-κB. HEK-blue hTLR8 cells were obtained by co-transfection of hTLR8 gene and optimized secretory embryonic alkaline phosphatase (SEAP) reporter gene into HEK293 cells. SEAP reporter gene was put under the control of […] minimal promoter fused with five NF-κB and AP-1-binding sites. NF-κB and AP-1 were activated by stimulation with TLR 8 ligand, thus inducing the expression of SEAP. The level of SEAP can be easily determined by HEK-Blue Detection (a cell culture medium that allows real-time detection of SEAP). HEK-Blue Detection comprises all nutrients needed for cell growth and specific SEAP color substrates. The hydrolysis of substrate by SEAP produces purple/blue color which can be measured by spectrophotometer.
When growing to 50-80% confluence, HEK-Blue hTLR7/8 cells were plated into 96-well plates (costar 3599) at a density of 40,000 cells/well. Then, the compound serially diluted at 10 points with a final concentration ranging from 1 nM to 10 μm in 0.1% DMSO/HEK-Blue Detection was added. The plates were then incubated in 5% CO2 at 37° C. for 16 h. Optical density at 620-655 nm was read on BMG PHERAstar FSX instrument. The EC50 of each compound was determined by calculating the maximum activation percentage identified using Resiquimod or motolimod.
The EC50 of the tested compound of the present invention is as follows.

[1] = relative to maximum activation by Resiquimod or motolimod, read-out: EC50 (nmol)

Compound | EC50 [1] [µM] | EC50 (unit μM, read-out: EC50) [µM]
CCCC(CCO)Oc1nc(N)c2ncc(CC3CCNCC3)n2n1 (stereo not drawn) [Compound B28, 3-((4-amino-7-(piperidin-4-ylmethyl)imidazo[2,1-f][1,2,4]triazin-2-yl)oxy)hexan-1-ol] | 0.308 | –
CCC[C@H](C)Oc1nc(N)c2ncc(C=C3CC4CCC(C3)N4)n2n1 [Compound B55, 7-((8-azabicyclo[3.2.1]oct-3-ylene)methyl)-2-(((S)-pent-2-yl)oxy)imidazo[2,1-f][1,2,4]triazin-4-amine] | – | > 10
CCC[C@H](C)Oc1nc(N)c2ncc(CC3CCN(C4CCNC4)CC3)n2n1 (stereo partly drawn) [Compound B13, 2—(((S)-pent-2-yl)oxy)-7-((1-(pyrrolidin-3-yl)piperidin-4-yl)methyl)imidazo[2,1-f][1,2,4]triazin-4-amine] | 0.387 | –
CCCCOc1nc(N)c2ncc(CC3CCNCC3)n2n1 [Compound B1, 2-butoxy-7-(piperidin-4-ylmethyl)imidazo[2,1-f][1,2,4]triazin-4-amine] | 0.051 | –
CCC[C@H](C)Oc1nc(N)c2ncc(CC3CCN(C)CC3)n2n1 [Compound B32, (S)-7-((1-methylpiperidin-4-yl)methyl)-2-(pent-2-yloxy)imidazo[2,1-f][1,2,4]triazin-4-amine] | 0.022 | –
CCC[C@H](C)Oc1nc(N)c2ncc(CC3CCN(CC(C)NC)CC3)n2n1 (stereo partly drawn) [Compound B54, 7-((1-(2-(methylamino)propyl)piperidin-4-yl)methyl)-2-(((S)-pent-2-yl)oxy)imidazo[2,1-f][1,2,4]triazin-4-amine] | 0.022 | –
CCC[C@H](C)Oc1nc(N)c2ncc(CC3CCCCN3)n2n1 (stereo partly drawn) [Compound B51, 2-(((S)-pent-2-yl)oxy)-7-(piperidin-2-ylmethyl)imidazo[2,1-f][1,2,4]triazin-4-amine] | 0.41 | –
CCC[C@H](C)Oc1nc(N)c2ncc(CC3CCNCC3(F)F)n2n1 (stereo partly drawn) [Compound B57, 7-((3,3-difluorpiperidin-4-yl)methyl)-2-(((S)-pent-2-yl)oxy)imidazo[2,1-f][1,2,4]triazin-4-amine] | – | > 10
Nc1nc(OCC2CCOC2)nn2c(CC3CCNCC3)cnc12 (stereo not drawn) [Compound B46, 7-(piperidin-4-ylmethyl)-2-((tetrahydrofuran-3-yl)methoxy)imidazo[2,1-f][1,2,4]triazin-4-amine] | > 10 | –
CCC[C@H](C)Oc1nc(N)c2ncc(CC3CCNCC3C)n2n1 (stereo partly drawn) [Compound B60, 7-((3-methylpiperidin-4-yl)methyl)-2-(((S)-pent-2-yl)oxy)imidazo[2,1-f][1,2,4]triazin-4-amine] | 0.917 | –
CCC[C@H](C)Oc1nc(N)c2ncc(/C=C3/CCNCC3(C)C)n2n1 [Compound B52, (S)-7-((3,3-dimethylpiperidin-4-ylidene)methyl)-2-(pent-2-yloxy)imidazo[2,1-f][1,2,4]triazin-4-amine] | – | > 10
CCC[C@H](C)Oc1nc(N)c2ncc(CC3CCCN3)n2n1 (stereo partly drawn) [Compound B42, 2-(((S)-pent-2-yl)oxy)-7-(pyrrolidin-2-ylmethyl)imidazo[2,1-f][1,2,4]triazin-4-amine] | 0.036 | –
CCC(CC)Oc1nc(N)c2ncc(CC3CCNCC3)n2n1 [Compound B48, 2-(pent-3-yloxy)-7-(piperidin-4-ylmethyl)imidazo[2,1-f][1,2,4]triazin-4-amine] | 0.0147 | –
CCC[C@H](C)Oc1nc(N)c2ncc(C[C@H]3[C@@H]4CNC[C@@H]43)n2n1 [Compound B33, 7-(((1R,5S,6s)-3-azabicyclo[3.1.0]hex-6-yl)methyl)-2-(((S)-pent-2-yl)oxy)imidazo[2,1-f][1,2,4]triazin-4-amine] | 0.766 | –
CCCC(C)Oc1nc(N)c2ncc(C3(O)CC4(CCNCC4)C3)n2n1 (stereo not drawn) [Compound B24, 2-(4-amino-2-(pent-2-yloxy)imidazo[2,1-f][1,2,4]triazin-7-yl)-7-azaspiro[3.5]nona-2-ol] | > 10 | –
CCC[C@H](C)Oc1nc(N)c2ncc(CC3CCN(CC4CCNCC4)CC3)n2n1 [Compound B14, (S)-2-(pent-2-yloxy)-7-((1-(piperidin-4-ylmethyl)piperidin-4-yl)methyl)imidazo[2,1-f][1,2,4]triazin-4-amine] | 0.138 | –
CCCC(C)Oc1nc(N)c2ncc(CC3CCOCC3)n2n1 (stereo not drawn) [Compound B36, 2-(pent-2-yloxy)-7-((tetrahydro-2H-pyran-4-yl)methyl)imidazo[2,1-f][1,2,4]triazin-4-amine] | > 10 | –
CCCCCc1nc(N)c2ncc(CC3CCNCC3)n2n1 [Compound B11, 2-pentyl-7-(piperidin-4-ylmethyl)imidazo[2,1-f][1,2,4]triazin-4-amine] | 1.79 | –
CCC[C@H](C)Oc1nc(N)c2ncc(CC3CNC3)n2n1 [Compound B39, (S)-7-(azetidin-3-ylmethyl)-2-(pent-2-yloxy)imidazo[2,1-f][1,2,4]triazin-4-amine] | 0.127 | –
CCC[C@H](C)Oc1nc(N)c2ncc(C=C3CCNCC3)n2n1 [Compound B35, (S)-2-(pent-2-yloxy)-7-(piperidin-4-ylidenemethyl)imidazo[2,1-f][1,2,4]triazin-4-amine] | 0.921 | –
CCC[C@H](C)Oc1nc(N)c2ncc(CC3CCNC3)n2n1 (stereo partly drawn) [Compound B26, 2—(((S)-pent-2-yl)oxy)-7-(pyrrolidin-3-ylmethyl)imidazo[2,1-f][1,2,4]triazin-4-amine] | 0.099 | –
CCC[C@H](C)Oc1nc(N)c2ncc(CC3CCN(CC(C)NC)CC3)n2n1 (single isomer, unassigned) [Compound B58, 7-((1-((R or S)-2-(methylamino)propyl)piperidin-4-yl)methyl)-2-(((S)-pent-2-yl)oxy)imidazo[2,1-f][1,2,4]triazin-4-amine] | 0.024 | –
CCCC(CCC)Oc1nc(N)c2ncc(CC3CCNCC3)n2n1 [Compound B47, 2-(hept-4-yloxy)-7-(piperidin-4-ylmethyl)imidazo[2,1-f][1,2,4]triazin-4-amine] | 0.084 | –
CCCC(C)Oc1nc(N)c2ncc(CC3CCCCC3)n2n1 (stereo not drawn) [Compound B29, 7-(cyclohexylmethyl)-2-(pent-2-yloxy)imidazo[2,1-f][1,2,4]triazin-4-amine] | > 10 | –
CCCCNc1nc(N)c2ncc(CC3CCNCC3)n2n1 [Compound B4, N2-butyl-7-(piperidin-4-ylmethyl)imidazo[2,1-f][1,2,4]triazin-2,4-diamine] | 0.347 | –
CCC[C@H](C)Oc1nc(N)c2ncc(CC3CCN(CC4CCCN4)CC3)n2n1 (stereo partly drawn) [Compound B20, 2—(((S)-pent-2-yl)oxy)-7-((1-(pyrrolidin-2-ylmethyl)piperidin-4-yl)methyl)imidazo[2,1-f][1,2,4]triazin-4-amine] | 0.558 | –
CCC[C@H](CC)Oc1nc(N)c2ncc(CC3CCNCC3)n2n1 [Compound B49, (S)-2-(hex-3-yloxy)-7-(piperidin-4-ylmethyl)imidazo[2,1-f][1,2,4]triazin-4-amine] | 0.0075 | –
CCC[C@H](C)Oc1nc(N)c2ncc(CC3CCCNC3)n2n1 (stereo partly drawn) [Compound B10, 2—(((S)-pent-2-yl)oxy)-7-(piperidin-3-ylmethyl)imidazo[2,1-f][1,2,4]triazin-4-amine] | 0.172 | –
CCC[C@H](C)Oc1nc(N)c2ncc(CC3CC4(CCNCC4)C3)n2n1 [Compound B50, (S)-7-((7-azaspiro[3.5]non-2-yl)methyl)-2-(pent-2-yloxy)imidazo[2,1-f][1,2,4]triazin-4-amine] | 0.209 | –
CCCCOc1nc(N)c2ncc(CCC3CCNCC3)n2n1 [Compound B3, 2-butoxy-7-(2-(piperidin-4-yl)ethyl)imidazo[2,1-f][1,2,4]triazin-4-amine] | 0.346 | –
